# Results from patent EP2397149A1 (Hil-Invent Ges.M.B.H., priority 2010, dated 2011).
# pIC50: −log10 of the molar value. Like-named read-outs stand apart in the source and are kept apart here. Starred links: 1 amine or outer side, 2 acyl side, 3 side chain; linkers in the order of their positions; H or OH if unused. Positions of bridges follow the written chain, without caps; N, C: chain ends. Non-standard residues stand in square brackets, D forms with d. Residues, ends and D or L forms follow the SMILES beside them. Chains are numbered I, II in the order given. Actinocin(9to1) = Cc1c2oc3c(C)ccc(C(=O)[*:1])c3nc-2c(C(=O)[*:2])c(N)c1=O; NMeV = CN[C@H](C(=O)O)C(C)C; Sar = CNCC(=O)O
# How the values were obtained:
# B-CLL cells = assay: IC50 determination (XTT dye, 48 h); format: cell-based, human
# Procedure: 1.5 x 10^6 B-CLL cells and 0.4 x 10^6 CEM-C7H2 cells per well were incubated with different concentrations of the respective substance (0,2, 0,5, 1, 2, 5, 10, 20 µM) and incubated for 48 h. After this XTT-dye solution was added as described above and absorption was measured at 450 nm with 655 nm as reference wavelength. Concentrations that led to a 50 % metabolism reduction were monitored as IC50 value.
# Finally, the substances were tested for their toxicity in cell lines from different parts of the human body such as liver (HepG2), kidney (HEK-293), lung (SHP-77), skin keratinocytes (WS-1) and in human umbilical vein endothelial cells from 3 different donors. […] For these substances the mean IC50 (48h) in 4 B-CLL cells samples from 4 different donors was determined and the substances were numbered beginning with the lowest IC50 in B-CLL cells.
# [1] = system: engrafted B-CLL mice (CD5/CD19 cells)
# Procedure: (§1) The original Eµ-TCL1a transgenic mice which were generously provided by C. Croce (Ohio) have been back-crossed for > 9 generations to C57BL/6 mice. Mice were killed at stated ages, or when signs of illness developed, and samples for histology, flow cytometry, and miRNA isolation were collected. The tumor load in all lymphoid organs was assessed by flow cytometry following staining for the surface markers CD19, CD5, and IgM. Approval from the Austrian Animal Ethics committee was obtained prior to performing the experiments. Engrafted mice were produced by injecting 3 x 10^6 lymphocytes of a leukemic Eµ-TCL1a transgenic mouse into 30 Black 6 mice from Charles River Laboratories, Sulzfeld, Germany.
# First a treatment study included 10 mice.
# To assess tumour load development after treatment blood samples were collected from the tail vein (Fig. 4).
# [2] = system: engrafted CLL mice (CD5/CD19 cells); assay: Treatment study 02: reduced actinomycin D concentrations in murine B-CLL model; format: in vivo
# Procedure: as §1
# In example 1 a treatment schedule of 0.06 mg/kg daily for two weeks was used. […] To assess the tumour load blood samples were consecutively taken from the tail vein.
# [3] = system: B-CLL cells bearing the chromosomal aberration del(17p)13; assay: Viability / apoptosis of del(17p)13 B-CLL cells (flow cytometry, AnnexinV/7-AAD); format: cell-based, human; conditions: for viability reduction: 160 nM
# Procedure: (§2) Viability was measured using flow-cytometry (AnnexinV/7-AAD,-/-). […] The length of the box corresponds to the interquartile range (IQR) and is the difference between the 75th and 25th percentiles. The horizontal line in the box is the median. […] Viability of B-CLL cells was assessed using a flow-cytometer (Annex-inV/7-AAD -/-). The length of the box corresponds to the interquartile range (IQR) and is the difference between the 75th and 25th percentiles. The horizontal line in the box is the median. […] Day zero is the day of engraftment with 3x10^6 lymphocytes derived from TCL1 transgenic mice with overt leukemia. […] Blood samples were collected from the tail vein of the respective animal and whole blood was analysed for CD5/CD19 positive cells using a flow-cytometer. […] Dashed line is 0.04 mg/kg and black line is 0.05 mg/kg daily for two weeks.
# The supplied substances were solved in 100 µl medium at 37°C 90 min on a rotation shaker and transferred to a 96-well plated. Then 100µl medium containing 1.5 x 10^6 B-CLL cells was added. Final concentration of the substances was 20 µM. After a incubation time of 48 h 50 µl XTT-dye was added and absorption measured as above. […] Only substances that reduced the cell metabolism/dye development > 50 % were counted. The reason for this higher cut off value is the low proliferative activity of B-CLL cells who are mainly in Go arrest. Positive substances were double checked with Annex-inV/7-AAD apoptosis/necrosis staining in CD19+/CD5+ positive cells on a flow cytometer.
# [4] = system: colon cancer cell line HCT116; assay: Sensitivity of isogenic HCT116 with or without p53 deletion; format: cell-based
# [5] = system: engrafted wildtype (C57BL/6) mice (CD5+/CD19+ cells); assay: Treatment study 03: head to head comparison of actinomycin D and fludarabine; format: in vivo; conditions: for 50 % survival time after start of treatment / tumour load reduction: actinomycin D 0.06 mg/kg daily for 14 days, fludarabine 34 mg/kg for 5 days; for tumour load reduction: day 22 after treatment start, vs untreated mice
# Procedure: as §2, §1
# At day 22 after treatment start tumour load was assessed compared to that of the tumour load of untreated mice.
# [6] = system: B-CLL cells of patients with no p53 aberrations; assay: Influence of the p53 inhibitor pifithrin-alpha on drug susceptibility (flow cytometry, AnnexinV/7-AAD); format: cell-based, human
# Procedure: as §2
# B-CLL cells of patients with no p53 aberrations were treated with 160 nM actinomycin w or w/o 30 µM pifithrin-alpha.
structure (smiles),measurement,setting,value
"Cc1c2oc3c(C)ccc(C(=O)N[C@@H]4C(=O)N[C@H](C(C)C)C(=O)N5CCC[C@H]5C(=O)N(C)CC(=O)N(C)[C@@H](C(C)C)C(=O)O[C@@H]4C)c3nc-2c(C(=O)N[C@@H]2C(=O)N[C@H](C(C)C)C(=O)N3CCC[C@H]3C(=O)N(C)CC(=O)N(C)[C@@H](C(C)C)C(=O)O[C@@H]2C)c(N)c1=O [actinomycin D] (I: T[dV]P[Sar][NMeV] / II: T[dV]P[Sar][NMeV]; ester I:1-I:C, II:1-II:C; linker I:N-II:N via Actinocin(9to1))",pIC50,"B-CLL cells; 4 B-CLL cells samples from 4 different donors, 48 h, in vitro, read-out: mean IC50 (48h)",7.10
same,survival difference to the mock treated animals (Fig. 3),"[1]; 0,06 mg/kg daily for two weeks vs PBS",highly significant
same,time after the initial therapy until retreatment,[1]; CD5/CD19 counts back at the initial value at day 135,85 days
same,CD5/CD19 count after treatment,"[1]; treatment at day 50, three surviving animals, tail vein blood",A reduction of the CD5/CD19 count can be observed in all three animals
same,tumour cells after treatment,"[2]; 0.05 mg/kg or 0.04 mg/kg daily for two weeks, two mice each, start 47 days after engraftment",severe reduction of tumour cells
same,time until tumour load increased to the initial values after the first treatment,"[2]; 0.05 or 0.04 mg/kg daily for two weeks, after first treatment",46 days
same,time until CD5/CD19 counts increased again after the second treatment,"[2]; 0.05 or 0.04 mg/kg daily for two weeks, after retreatment",44 days
same,viability (Fig. 1),"[3]; 20 nM, 48 h, 4 p53 deleted, fludarabine resistant B-CLL patients, p < 0.001",significant viability reduction
same,apoptosis induced in % of B-CLL cells,"[3]; 20 nM, within 48 h, del(17p)13 B-CLL cells (Fig. 1)",> 80%
same,viability reduction,[3]; del(17p)13 B-CLL samples derived from peripheral blood,> 45%
same,viability reduction,[3]; one del(17p)13 sample derived from the bone marrow,38%
same,apoptosis induction,"[3]; 20 µM, three B-CLL samples of patients with del(17p)13",able to induce apoptosis in all three B-CLL cells samples
same,effect of p53 deletion on actinomycin D susceptibility,[4],no effect
same,"tumour load (CD5+/CD19+ cell count), Fig. 6",[5]; 22 days after treatment start,highly significant tumour load reduction
same,50 % survival time after start of treatment,[5],103 days
same,tumour load reduction,[5],more than 80%
CN1CC[C@H](c2c(O)cc(O)c3c(=O)cc(-c4ccccc4Cl)oc23)[C@H](O)C1 [flavopiridol],synergism with pifithrin-alpha,"[6]; with or without 30 µM pifithrin-alpha, 48 h, 160 nM actinomycin (text; Fig. 2: 20 nM), 50 nM flavopiridol, 10 µM fludarabine",synergistic with pifithrin-alpha
Nc1nc(F)nc2c1ncn2[C@@H]1O[C@H](CO)[C@@H](O)[C@@H]1O [fludarabine],pIC50,"B-CLL cells; Homo sapiens, B-CLL, read-out: double IC50 determined for fludarabine, printed as the double IC50, unclear whether 3µM is the IC50 or its double",5.52
same,50 % survival time after start of treatment,[5],47 days
same,tumour load reduction,[5],20%
Cc1ccc(C(=O)Cn2c3c(sc2=N)CCCC3)cc1 [pifithrin-alpha],effect of pifithrin-alpha alone on viability of CLL cells,"[6]; 30 µM, alone",no effect on viability
